Measured values from US9393284B2, “Visfatin therapeutic agents for the treatment of acne and other conditions” (ARAVA BIO-TECH LTD., priority 2009, dated 2016).
Ends that are not written are not given here. * marks the point of attachment. Myristoyl = CCCCCCCCCCCCCC(=O)*

How the values were obtained:
sebum production = details: background statement; cited from earlier work
sebaceous glands = experiment: Sebum production and maturation of sebaceous glands in newborn BalbC mice topically treated with visfatin antagonist siRNAs (Oil Red O, H&E, gland counts); format: in vivo, Mus musculus; details: siRNA free second control solution (PBS, 0.1% DMSO, 1 μg/ml MPDY), day 5 after birth
Experimental: Hematoxylin & Eosin Staining: Paraffin embedded skin biopsy section slides were incubated at 60° C. for 60 minutes and deparaffinized by washing the slides twice with toluene (100%) for 10 minutes and rehydrating the skin biopsy section slides in decreasing concentration of ethanol (100-50%) for 5 minutes each. The slides then were stained with a ready to use solution of hematoxylin for 5 minutes, rinsed with water, stained with eosin (0.5% in double distilled water) for 1.5 minutes and washed twice by rapid immersion in 70% ethanol. Thereafter, the slides were dehydrated by washing once with 95% ethanol for 5 minutes, twice with 100% ethanol for 5 minutes and twice with xylene (100%) for 10 minutes. This was followed by the application of ENTELLAN™ (Merck KGaA, Darmstadt, Germany) and the mounting of coverslips.
Oil Red O Staining: Frozen skin biopsy section slides were fixed in 1% neutral-buffered formalin for 5 minutes, washed in deionized water, and incubated in 60% isopropanol for 5 minutes. Skin biopsy section slides were stained with a fresh, filtered Oil Red O working solution which had been prepared immediately beforehand by making a 2:3 mixture of stock (0.5% Oil Red O in 99% isopropanol) and deionized water. […]

In the case of `CC1=C(/C=C/C(C)=C/C=C/C(C)=C\C(=O)O)C(C)(C)CCC1` [Isotretinoin], the “decrease of sebum production” value (sebum production) is given as “up to 90%”.
For “MPDY: cationic, lipophilic, N-myristoylated peptide having the amino acid sequence FARKGALRQ (SEQ ID NO: 27) (Myristoyl-FARKGALRQ)”, the “effect of peptide alone on sebum production and skin” value (sebaceous glands) was “did not inhibit sebum production or otherwise discernibly alter the skin”.
